Assay results from ChEMBL document CHEMBL1122789, “Synthesis and biological activity of structural analogues of the anticancer benzophenanthridine alkaloid nitidine chloride” (1984).

Experiments:
Type in all cases: functional, Mus musculus
[1] = Evaluated for anticancer activity in tumor inhibition system colon 38 tumor at dose 200 mg/kg
P388 = assay: Evaluated for anticancer activity in survival tumor system P388 lymphocytic leukemia at a dose of 12.5 mg/kg;Number of Tested survived/number of control survived (5/6)
B16 = assay: Evaluated for anticancer activity in survival tumor system B16 melanocarcinoma at a dose of 25 mg/kg; Number of Tested survived/number of control survived (10/10)

SMILES: COc1cc2c[n+](C)c3c(c2cc1OC)Cc1cc2c(cc1-3)OCO2.[Cl-]
- T/C [1]: 97%
- Survival (P388): 5
- Survival (B16): 10
